Results published in PMC12851007 (Angewandte Chemie (International Ed. in English), 2025).
Read-outs that look alike come from different tables or passages of the source.

Tests used:
[1] = CX4/LCG tandem membrane assay with subsequent addition of spermine (transient vs stable pores); format: in vitro ADME; settings: TP10 0.2 µM or melittin 5 nM at 60 s, spermine 20 µM at 340 s, 10 mM Hepes, 175 mM glucose, pH 7.5
Method: This means that TP10 renders the vesicle membranes only transiently permeable, while after some time, the pores “close”, most likely due to equilibration of the inside and outside concentrations of TP10. At sufficiently low TP10 concentrations, the vesicles have consequently released only some of their content after a certain incubation time and no further release of encapsulated compounds is observed thereafter. The transient nature of the TP10 pores was also confirmed herein by the CX4/LCG tandem membrane assay (Figure 4, black line). […] At this point of time, the TP10 pores should be either closed, or there should be some remaining stable equilibrium pores, which are too small to allow efflux of relatively large CX4 and/or LCG (MW > 500 Da), but sufficiently large to allow CF efflux (MW = 376 Da). Closed pores would refer to the previously reported graded mechanism, whereas the latter would point toward an all‐or‐none release mechanism.^[ [12], [70] ^] […] The newly developed assay has therefore the added capacity to afford more fine‐grained mechanistic information on membrane activity.
The blue trace is a control to illustrate full dissociation of the CX4/LCG complex during vesicle lysis by TX‐100.
LysisLysis vesicle lysisvesicle lysis […]
calibration cocktail at 600 s. a) Original changes in fluorescence intensity of LCG ( λex = 369 nm, λem = […]

[2] = Dual-channel assay, CX4/LCG channel, POPC vesicles; format: in vitro ADME; settings: dual-channel; seven independent POPC LUV batches (n = 7), penetratin 15 µM, Pep-1 10 µM, LRLLRW 30 µM, TP10 0.15 µM, 10 mM Hepes, 175 mM glucose, pH 7.5, t-test/ANOVA p < 0.001; melittin: Figure S35 and Table S9
Text: With the established identical extravesicular conditions in both assays, we further envisaged a simultaneous measurement of both assays within the same solution to enhance the comparability of the measurements. This became possible after optimization of the excitation and emission wavelengths. […] A further optimization was required, because the dye concentrations in the CF assay and the CX4/LCG assay are largely different.^[ [51], [52] ^] Consequently, simultaneous monitoring requires the detection of a low amount of LCG in the presence of a high concentration of the much more brightly fluorescent CF, which challenges the dynamic range of a typical fluorescence spectrometer in a dual‐channel measurement. To reduce the fluorescence read‐out of CF, the excitation wavelength was shifted from the absorption maximum at ca. 490 nm to 525 nm, where CF has a much lower absorbance, and the emission in the CF channel was shifted from its maximum at ca. 515 nm to 545 nm to further reduce the fluorescence of CF. To maintain a high LCG fluorescence, excitation was performed at the absorption maximum at 369 nm. Since CF has a residual absorbance at this excitation wavelength, emission in the LCG channel was monitored at 475 nm instead of 502 nm to eliminate spill‐over of CF fluorescence into the LCG channel. […]
Time-dep endent fluores cence intensit y traces, I (t), were subsequentl y normalized to fractional intensities, If(t), using equation (1) and the concentration- dependent fractional intensities just before the addition of th e calibration co cktail, I f, w ere then normaliz ed to fr actional membran e activities, Y, using equation (2). The fractional membrane activities, Y, were subsequently plotted against the peptide concentration, c, and anal ysed using the Hill equation (3) to obtain the effective molar concentration, EC 50, and the Hill coefficient, n. For peptides with too low activity to determine Y max ex perimentall y, Y max was fixed at 1.0 during fitting. […]
Dual-Channel Measurements
Vesicles w ere prep ared a s described abov e (se e en try (4) in Table S2 and entry (3) in Table S3) and eluted with freshl y prepared 10 mM Hepes, 175mM glucos e, pH 7.5 i n the size exclusion chromatograph y. For the measurements, an approp riate volume o f the liposome stock solutions was diluted to 2m L in a 10× 10 mm PS cuvette wi th 10 mM Hep es bu ffer and 175 mM glucos e at pH 7.5 to afford 12.5µM POPC ⊃CX4/LCG-LUVs and 12.5 µM POPC⊃CF-LUVs (25 µM POPC total). The cuvette was placed into a thermostatted fluorimeter sample holder at 25.0 °C and gentl y stirred at 300 rpm. The fluorescence intensity w as simultaneous l y r eco rded in the CF chann el ( λ exc = 525 nm, λ em = 545 nm) and in the LCG channel ( λ exc = 369 nm, λ em = 475 nm) with an ex citation slit width of 5 nm and an emission slit width of 5 n m during addition of 20 µL peptide stock solution of varying concentrations at 60 s and 20 µL of a calibration

[3] = format: binding; settings: LCG displacement in 10 mM Hepes, pH 7.0, 25 °C; fluorescence; error = SD of nonlinear fit, n = 1
Method: Fluorescence titrations were performed as previously described and the resulting titration curves we re an al yz ed usi ng established pro cedur es . Competitive titrations were eithe r anal yz ed with a fitting function assuming 1:1 host-competitor complexes[3] or with a fitting function involving hi gher complex es with more than on e h ost bound per peptide.[4] In the latter c ase, an identical binding affinity is assumed for all binding sites. […]
Figure S1. a) Fluorescence titration of 0.5 µM LCG ( λex = 369 n m) with varying concentrations of CX4 in 10 mM Hepes, pH 7.0, 25 °C .b) Respective titration curve ( λem = 502 nm) with fitted line . […]
Figure S2. a) Competitive fluorescence titration wit h 0.5 µM LCG, 1 µM CX4 ( λex = 369 nm) and varying concentrations of penetratin in 10 mM Hepes, pH 7.0, 25 °C . b) Respective titration c ur ve (λem = 502 nm) with fitted line .
(also on this page, place not known: analyzed using procedures. were either analyzed host -competitor higher complexes one host case, 700 Intensity Intensity (λex °C. line. 650 0 Intensity 0 Intensity b) curve (λem nm) with line.)

[4] = CX4/LCG supramolecular tandem membrane assay, POPC vesicles; format: in vitro ADME; settings: 30 µM peptide; 25 µM POPC⸧CX4/LCG-LUVs (inside 700 µM CX4, 500 µM LCG) in 10 mM Hepes, pH 7.0, 25 °C; fluorescence λexc 369/λem 502 nm; peptide at 60 s, TX-100/protamine at 600 s; fractional activity; n = 1
Method: Membrane Activity M easurements
Vesicle preparation. 100 µ L of a solution of 25 mg/ml of POPC in chloroform or 200 µ L of a solution of 25 mg/ml of EYPC in chloroform was purged with nitrogen and dried overnight under hi gh vacuum. The thin lipid film was rehydrated with 1 ml reh ydrati on buffer (= inside buffer, see Tabl e S2 ) b y agitation at room temperature for 30min and then subjected to 2 0 freeze- th aw c ycles (freezing in liquid nitro gen and thawing at 40 °C). […]
Ta b l e S 2. Combinations of lipids and inside and outside buffer for CX4/LCG -LUVs.
No. Lipid Inside buffer = rehydration buffer Outside buffer
(4) POPC 10 mM Hepes, 700 µM CX4, 500 µM LCG, 10 mM Hepes buffer, 175 mM glucose, pH 7.5 [a] 175 mM glucose, pH 7.5 [a]
[a] Glucose b uffers (183 mOsm/L at 25 °C) were used within one week after preparation.
Vesicle quality control. T o ensure the absence of the CX4/ LCG reporter pair in the ex travesicular ph ase, 20 µL of the collected liposome fr action w as diluted to 2 ml with outside buffer and the fluor escen ce (λ exc = 369 nm; λ em = 502 nm) was recorded during the addition of […]
The final lipid content in the liposome suspension after p repa rat ion and separ ation was d etermined b y NMR as p reviousl y reported. Assay protocol. An appropriate volume of the liposome stock solutions was diluted to 2m L with outside buffer in a 10 ×10 mm quartz glass cuvette to afford a phospholipid concentration of 25 µM. The cuvette was placed into a thermostatted fluorimeter sample holder at 25.0 °C and gentl y stirred at 300 rpm. Subsequently, the time-dependent change in fluorescence intensity (λ exc = 369 nm; λ em = 502 nm) was record ed during addition of 20 µ L of peptide stock solutions of varying concentrations at 60 s. At 600 s, 20µ L o f a solution containing 1.6% (wt/vol) TX-100 and 1.5 mM protamine was added for calibration to affo rd 0.016% (wt/vol) TX-100 and 15 µM protamine final concent rations.
Time-dep endent fluores cence intensit y traces, I (t), were subsequentl y normalized to fractional intensities, If(t), using equation (1). Therein, I 0 is the intensity just before addition of peptide and I ∞ is the constant intensit y after addition of the calibration cockt ail.
IIf (tt ) = II (tt )−II0II∞ − II0 (1)
The concentration-dependent fractional intensities just before the addition of the calibration cocktail, If, were then normalized to fractional membrane activities, Y, using equation (2).
Therein, If,0 is the fractional intensit y just before addition of the calibration cocktail in absence of peptide and I f,∞ is the constant fractional intensity after addition of the calibration cocktail.
YY = IIf − IIf,0IIf,∞ − IIf,0 (2)
The fractional membrane activities, Y, were subsequently plotted against the peptide concentration, c, and analysed using the Hill equation (3) to obtain the effective molar concentration, EC50, and the Hill coefficient, n. Y0 and Y ma x are the fractional membrane activities in absen ce o f p eptide and at max imal peptide concent rations. For peptides with too little activity to determine Y ma x ex perimentall y, Y max was fixed at 1.0 during fitting. […]

[5] = In 10 mM NaH2PO4, pH 7.2; ref [46]; cited from earlier work
Text: Table 1 Binding constants of peptides to CX4. ^a) | column: K a (M^−1)

| SMILES | kind of pores (fluorescence response to spermine added after the peptide) [1] | membrane activity in the CX4/LCG channel compared with the CF channel [2] | K a, binding constant of peptide to CX4 [3] | Y30µM, membrane activity, CX4/LCG assay [4] | K a, binding constant of peptide to CX4 [5] |
| --- | --- | --- | --- | --- | --- |
| CC[C@H](C)[C@H](NC(=O)CN)C(=O)NCC(=O)N[C@@H](C)C(=O)N[C@H](C(=O)N[C@@H](CC(C)C)C(=O)N[C@@H](CCCCN)C(=O)N[C@H](C(=O)N[C@@H](CC(C)C)C(=O)N[C@H](C(=O)N[C@H](C(=O)NCC(=O)N[C@@H](CC(C)C)C(=O)N1CCC[C@H]1C(=O)N[C@@H](C)C(=O)N[C@@H](CC(C)C)C(=O)N[C@H](C(=O)N[C@@H](CO)C(=O)N[C@@H](Cc1c[nH]c2ccccc12)C(=O)N[C@H](C(=O)N[C@@H](CCCCN)C(=O)N[C@@H](CCCNC(=N)N)C(=O)N[C@@H](CCCCN)C(=O)N[C@@H](CCCNC(=N)N)C(=O)N[C@@H](CCC(N)=O)C(=O)N[C@@H](CCC(N)=O)C(N)=O)[C@@H](C)CC)[C@@H](C)CC)[C@@H](C)O)[C@@H](C)O)C(C)C)C(C)C [Melittin] | forms stable equilibrium pores | higher activity with the CF assay | (1.2 ± 0.3) × 10^7 M^−1 |  |  |
| N=C(N)NCCC[C@H](NC(=O)[C@H](CCCNC(=N)N)NC(=O)[C@H](CCCNC(=N)N)NC(=O)[C@H](CCCNC(=N)N)NC(=O)[C@H](CCCNC(=N)N)NC(=O)[C@H](CCCNC(=N)N)NC(=O)[C@@H](N)CCCNC(=N)N)C(=O)O [Peptide R7, heptaarginine] |  |  |  | 0.17 | (7.2 ± 0.5) × 10^7 M^−1 |
| N=C(N)NCCC[C@H](NC(=O)[C@H](CCCNC(=N)N)NC(=O)[C@H](CCCNC(=N)N)NC(=O)[C@H](CCCNC(=N)N)NC(=O)[C@H](CCCNC(=N)N)NC(=O)[C@H](CCCNC(=N)N)NC(=O)[C@H](CCCNC(=N)N)NC(=O)[C@H](CCCNC(=N)N)NC(=O)[C@@H](N)CCCNC(=N)N)C(=O)O [Peptide R9, nonaarginine] |  |  | (1.8 ± 0.4) × 10^8 M^−1 | 0.11 |  |
